Assays:
Assay in all cases: Test B pre-/postemergence plant response
Assay type in all cases: in vivo
[1] = tested on: Russian thistle (Salsola iberica); settings: Preemergence; for Russian Thistle plant response rating: 8 g ai/ha
In short: (§1)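 Visual scoring from 0 (no effect) to 100 (complete control) against untreated controls was done 13 to 15 days after greenhouse treatment. Chemicals were formulated in a surfactant-containing non-phytotoxic solvent and applied to soil preemergence or to 1- to 4-leaf (2-18 cm) plants postemergence.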

[2] = tested on: bermudagrass (Cynodon dactylon); settings: for Bermudagrass plant response rating: 8 g ai/ha
In short: as §1

[3] = tested on: blackgrass (Alopecurus myosuroides); settings: for Blackgrass plant response rating: 8 g ai/ha
In short: as §1

[4] = tested on: catchweed bedstraw (Galium aparine); settings: Preemergence; for Galium plant response rating: 8 g ai/ha
In short: as §1

[5] = tested on: cocklebur (Xanthium strumarium); settings: for Cocklebur plant response rating: 8 g ai/ha
In short: as §1

[6] = tested on: corn (Zea mays); settings: for Corn plant response rating: 8 g ai/ha
In short: as §1

[7] = tested on: downy bromegrass (Bromus tectorum); settings: for Bromegrass, Downy plant response rating: 8 g ai/ha
In short: as §1

[8] = tested on: kochia (Kochia scoparia); settings: for Kochia plant response rating: 8 g ai/ha
In short: as §1

[9] = tested on: lambsquarters (Chenopodium album); settings: for Lambsquarters plant response rating: 8 g ai/ha
In short: as §1

[10] = tested on: morningglory (Ipomoea coccinea); settings: for Morningglory plant response rating: 8 g ai/ha
In short: as §1

[11] = tested on: soybean (Glycine max); settings: for Soybean plant response rating: 8 g ai/ha
In short: as §1

[12] = tested on: surinam grass (Brachiaria decumbens); settings: for Surinam Grass plant response rating: 8 g ai/ha
In short: as §1

[13] = tested on: wheat (Triticum aestivum); settings: for Wheat plant response rating: 8 g ai/ha
In short: as §1

[14] = tested on: yellow nutsedge (Cyperus esculentus); settings: for Nutsedge, Yellow plant response rating: 8 g ai/ha
In short: as §1

[15] = 16 g ai/ha, scale 0 to 100 (0 no effect, 100 complete control)
[16] = 31 g ai/ha, 0 to 100 scale, 0 no effect, 100 complete control
[17] = Postemergence, 16 g ai/ha, scale 0 to 100
[18] = Postemergence, 31 g ai/ha, scale 0 to 100, 0 no effect, 100 complete control
[19] = Postemergence, 62 g ai/ha, scale 0 to 100, 0 no effect, 100 complete control
[20] = Preemergence, scale 0 to 100 (0 no effect, 100 complete control)
[21] = Preemergence, 16 g ai/ha, scale 0 to 100 (0 no effect, 100 complete control)
[22] = Preemergence, 31 g ai/ha, 0 to 100 scale, 0 no effect, 100 complete control
[23] = Preemergence, 62 g ai/ha, scale 0 to 100

CCc1cc(-c2ccc(Cl)cc2)nn1-c1c(OS(C)(=O)=O)cnn(C)c1=O [Compound 39]
Plant response rating, Russian Thistle [1, 15]: 0 | Plant response rating, Russian Thistle [1, 16]: 0 | Plant response rating, Russian Thistle ([1]; 62 g ai/ha, scale 0 to 100): 0 | Russian Thistle plant response rating ([1]; scale 0 to 100): 0 | Bermudagrass plant response rating ([2]; postemergence, 0-100 scale): 0 | Plant response rating, Bermudagrass [2, 17]: 60 | Plant response rating, Bermudagrass [2, 18]: 75 | Plant response rating, Bermudagrass [2, 19]: 95 | Bermudagrass plant response rating [2, 20]: 0 | Plant response rating, Bermudagrass [2, 21]: 90 | Plant response rating, Bermudagrass [2, 22]: 95 | Plant response rating, Bermudagrass [2, 23]: 98 | Blackgrass plant response rating ([3]; postemergence, 0-100 scale): 0 | Plant response rating, Blackgrass [3, 17]: 0 | Plant response rating, Blackgrass [3, 18]: 95 | Plant response rating, Blackgrass [3, 19]: 100 | Plant response rating, Blackgrass [3, 21]: 90 | Plant response rating, Blackgrass [3, 22]: 90 | Plant response rating, Blackgrass [3, 23]: 90 | Blackgrass plant response rating ([3]; Preemergence, scale 0 to 100): 40 | Plant response rating, Galium [4, 15]: 0 | Plant response rating, Galium [4, 16]: 0 | Plant response rating, Galium ([4]; 62 g ai/ha, scale 0 to 100): 0 | Galium plant response rating ([4]; scale 0 to 100): 0 | Cocklebur plant response rating ([5]; postemergence, 0-100 scale): 0 | Plant response rating, Cocklebur [5, 17]: 0 | Plant response rating, Cocklebur [5, 18]: 0 | Plant response rating, Cocklebur [5, 19]: 0 | Plant response rating, Cocklebur [5, 21]: 0 | Plant response rating, Cocklebur [5, 22]: 0 | Plant response rating, Cocklebur [5, 23]: 0 | Cocklebur plant response rating ([5]; Preemergence, scale 0 to 100): 0 | Corn plant response rating ([6]; postemergence, 0-100 scale): 0 | Plant response rating, Corn [6, 17]: 85 | Plant response rating, Corn [6, 18]: 98 | Plant response rating, Corn [6, 19]: 100 | Plant response rating, Corn [6, 21]: 80 | Plant response rating, Corn [6, 22]: 98 | Plant response rating, Corn [6, 23]: 100 | Corn plant response rating ([6]; Preemergence, scale 0 to 100): 65 | Bromegrass, Downy plant response rating ([7]; postemergence, 0-100 scale): 5 | Plant response rating, Bromegrass, Downy [7, 17]: 10 | Plant response rating, Bromegrass, Downy [7, 18]: 45 | Plant response rating, Bromegrass, Downy [7, 19]: 80 | Plant response rating, Bromegrass, Downy [7, 21]: 70 | Plant response rating, Bromegrass, Downy [7, 22]: 85 | Plant response rating, Bromegrass, Downy [7, 23]: 85 | Bromegrass, Downy plant response rating ([7]; Preemergence, scale 0 to 100): 0 | Kochia plant response rating ([8]; postemergence, 0-100 scale): 0 | Plant response rating, Kochia [8, 17]: 0 | Plant response rating, Kochia [8, 18]: 0 | Plant response rating, Kochia [8, 19]: 0 | Plant response rating, Kochia [8, 21]: 0 | Plant response rating, Kochia [8, 22]: 0 | Plant response rating, Kochia [8, 23]: 0 | Kochia plant response rating ([8]; Preemergence, scale 0 to 100): 0 | Lambsquarters plant response rating ([9]; postemergence, 0-100 scale): 0 | Plant response rating, Lambsquarters [9, 17]: 0 | Plant response rating, Lambsquarters [9, 18]: 0 | Plant response rating, Lambsquarters [9, 19]: 0 | Plant response rating, Lambsquarters [9, 21]: 0 | Plant response rating, Lambsquarters [9, 22]: 0 | Plant response rating, Lambsquarters [9, 23]: 0 | Lambsquarters plant response rating ([9]; Preemergence, scale 0 to 100): 0 | Morningglory plant response rating ([10]; postemergence, 0-100 scale): 0 | Plant response rating, Morningglory [10, 17]: 0 | Plant response rating, Morningglory [10, 18]: 0 | Plant response rating, Morningglory [10, 19]: 0 | Plant response rating, Morningglory [10, 21]: 0 | Plant response rating, Morningglory [10, 22]: 0 | Plant response rating, Morningglory [10, 23]: 0 | Morningglory plant response rating ([10]; Preemergence, scale 0 to 100): 0 | Soybean plant response rating ([11]; postemergence, 0-100 scale): 0 | Plant response rating, Soybean [11, 17]: 0 | Plant response rating, Soybean [11, 19]: 0 | Plant response rating, Soybean [11, 21]: 0 | Plant response rating, Soybean [11, 22]: 0 | Plant response rating, Soybean [11, 23]: 0 | Soybean plant response rating ([11]; Preemergence, scale 0 to 100): 0 | Surinam Grass plant response rating ([12]; postemergence, 0-100 scale): 100 | Plant response rating, Surinam Grass [12, 17]: 100 | Plant response rating, Surinam Grass [12, 19]: 100 | Plant response rating, Surinam Grass [12, 21]: 95 | Plant response rating, Surinam Grass [12, 22]: 100 | Plant response rating, Surinam Grass [12, 23]: 100 | Surinam Grass plant response rating ([12]; Preemergence, scale 0 to 100): 90 | Wheat plant response rating ([13]; postemergence, 0-100 scale): 20 | Plant response rating, Wheat [13, 17]: 20 | Plant response rating, Wheat [13, 19]: 98 | Plant response rating, Wheat [13, 21]: 30 | Plant response rating, Wheat [13, 22]: 70 | Plant response rating, Wheat [13, 23]: 80 | Wheat plant response rating ([13]; Preemergence, scale 0 to 100): 0 | Nutsedge, Yellow plant response rating ([14]; postemergence, 0-100 scale): 0 | Plant response rating, Nutsedge, Yellow [14, 17]: 0 | Plant response rating, Nutsedge, Yellow [14, 18]: 0 | Plant response rating, Nutsedge, Yellow [14, 19]: 0 | Plant response rating, Nutsedge, Yellow [14, 21]: 0 | Plant response rating, Nutsedge, Yellow [14, 22]: 0 | Plant response rating, Nutsedge, Yellow [14, 23]: 0 | Nutsedge, Yellow plant response rating ([14]; Preemergence, scale 0 to 100): 0

Cn1ncc(O)c(-c2nn(-c3ccc(Cl)cc3)cc2Br)c1=O [Compound 31]
Plant response rating, Russian Thistle [1, 15]: 0 | Plant response rating, Russian Thistle [1, 16]: 0 | Plant response rating, Russian Thistle ([1]; 62 g ai/ha, scale 0 to 100): 0 | Russian Thistle plant response rating ([1]; scale 0 to 100): 0 | Bermudagrass plant response rating [2, 20]: 95 | Plant response rating, Bermudagrass [2, 21]: 100 | Plant response rating, Bermudagrass [2, 22]: 100 | Plant response rating, Bermudagrass [2, 23]: 100 | Plant response rating, Blackgrass [3, 21]: 90 | Plant response rating, Blackgrass [3, 22]: 98 | Plant response rating, Blackgrass [3, 23]: 100 | Blackgrass plant response rating ([3]; Preemergence, scale 0 to 100): 80 | Plant response rating, Galium [4, 15]: 0 | Plant response rating, Galium [4, 16]: 0 | Plant response rating, Galium ([4]; 62 g ai/ha, scale 0 to 100): 50 | Galium plant response rating ([4]; scale 0 to 100): 0 | Plant response rating, Cocklebur [5, 21]: 0 | Plant response rating, Cocklebur [5, 22]: 0 | Plant response rating, Cocklebur [5, 23]: 0 | Cocklebur plant response rating ([5]; Preemergence, scale 0 to 100): 0 | Plant response rating, Corn [6, 21]: 0 | Plant response rating, Corn [6, 22]: 60 | Plant response rating, Corn [6, 23]: 90 | Plant response rating, Bromegrass, Downy [7, 21]: 0 | Plant response rating, Bromegrass, Downy [7, 22]: 65 | Plant response rating, Bromegrass, Downy [7, 23]: 85 | Bromegrass, Downy plant response rating ([7]; Preemergence, scale 0 to 100): 0 | Plant response rating, Kochia [8, 21]: 0 | Plant response rating, Kochia [8, 22]: 0 | Plant response rating, Kochia [8, 23]: 0 | Kochia plant response rating ([8]; Preemergence, scale 0 to 100): 0 | Plant response rating, Lambsquarters [9, 21]: 0 | Plant response rating, Lambsquarters [9, 22]: 0 | Plant response rating, Lambsquarters [9, 23]: 0 | Lambsquarters plant response rating ([9]; Preemergence, scale 0 to 100): 0 | Plant response rating, Morningglory [10, 21]: 0 | Plant response rating, Morningglory [10, 22]: 0 | Plant response rating, Morningglory [10, 23]: 0 | Morningglory plant response rating ([10]; Preemergence, scale 0 to 100): 0 | Plant response rating, Soybean [11, 21]: 0 | Plant response rating, Soybean [11, 22]: 0 | Plant response rating, Soybean [11, 23]: 60 | Soybean plant response rating ([11]; Preemergence, scale 0 to 100): 0 | Plant response rating, Surinam Grass [12, 21]: 80 | Plant response rating, Surinam Grass [12, 22]: 100 | Plant response rating, Surinam Grass [12, 23]: 100 | Surinam Grass plant response rating ([12]; Preemergence, scale 0 to 100): 80 | Plant response rating, Wheat [13, 21]: 0 | Plant response rating, Wheat [13, 22]: 0 | Plant response rating, Wheat [13, 23]: 80 | Wheat plant response rating ([13]; Preemergence, scale 0 to 100): 0 | Plant response rating, Nutsedge, Yellow [14, 21]: 0 | Plant response rating, Nutsedge, Yellow [14, 22]: 0 | Plant response rating, Nutsedge, Yellow [14, 23]: 0 | Nutsedge, Yellow plant response rating ([14]; Preemergence, scale 0 to 100): 0
